Where a name gives a salt, the structure may show the parent alone. Read-outs that look alike come from different tables or passages of the source.
What was measured:
5-HT2B receptor [1] = target: T1, 5-HT2B receptor (Homo sapiens, UniProt P41595); assay: 5-HT2B activity, agonist; assay type: cell-based
DAT = DAT (Rattus norvegicus, UniProt P23977); assay: DA release assay (synaptosomes, [3H]MPP+); assay type: biochemical; set-up: the supernatants were retained on ice (synaptosomal preparation); from tissue; host or cells: rat caudate synaptosomes; conditions: for activation at 10 µM: Table 3
Sequence of DAT (P23977 whole entry): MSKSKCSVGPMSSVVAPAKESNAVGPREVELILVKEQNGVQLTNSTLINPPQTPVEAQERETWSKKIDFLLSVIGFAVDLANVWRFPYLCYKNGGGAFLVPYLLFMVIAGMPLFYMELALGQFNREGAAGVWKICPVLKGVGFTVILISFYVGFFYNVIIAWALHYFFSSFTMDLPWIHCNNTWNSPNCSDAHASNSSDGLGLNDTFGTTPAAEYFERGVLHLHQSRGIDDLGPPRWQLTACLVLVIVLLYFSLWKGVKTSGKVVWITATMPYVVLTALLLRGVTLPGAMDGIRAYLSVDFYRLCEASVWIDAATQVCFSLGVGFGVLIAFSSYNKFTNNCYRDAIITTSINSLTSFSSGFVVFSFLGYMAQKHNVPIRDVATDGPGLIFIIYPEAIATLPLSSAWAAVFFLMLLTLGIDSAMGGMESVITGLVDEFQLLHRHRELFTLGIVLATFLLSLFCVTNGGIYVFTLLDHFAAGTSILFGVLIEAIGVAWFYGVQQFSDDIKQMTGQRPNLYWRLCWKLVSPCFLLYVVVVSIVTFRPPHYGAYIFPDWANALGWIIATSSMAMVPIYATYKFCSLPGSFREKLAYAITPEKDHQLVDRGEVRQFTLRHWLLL
Protocol: (§1) Rat caudate (for DA release) or whole brain minus cerebellum and caudate (for NE and 5-HT release), was homogenized in ice-cold 10% sucrose containing 1 μM reserpine. Nomifensine (100 nM) and GBR12935 (100 nM) were added to the sucrose solution for [^3H]5-HT release experiments to block any potential [^3H]5-HT reuptake into NE and DA nerve terminals. For the DA release assay, 100 nM desipramine and 100 nM citalopram were added to block [^3H]MPP^+ uptake into NE and 5-HT nerves. For the NE release assay, 50 nM GBR12935 and 100 nM citalopram were added to block [^3H]MPP^+ uptake into DA and 5-HT nerves. After 12 strokes with a Potter-Elvehjem homogenizer, homogenates were centrifuged at 1000×g for 10 min at 0-4° C. and the supernatants were retained on ice (synaptosomal preparation).
(§2) After incubation to steady state, 850 μl of synaptosomes preloaded with [^3H]ligand were added to 12×75 mm polystyrene test tubes that contained 150 μl test drug in uptake buffer plus 1 mg/ml BSA. After 5 min (^3H]5-HT) or 30 min (NE and DA assays) the release reaction was terminated by dilution with 4 ml wash buffer (10 mM Tris-HCl pH 7.4 containing 0.9% NaCl at 25° C.) followed by rapid vacuum filtration over Whatman GF/B filters using a Brandel Harvester. The filters were rinsed twice with 4 ml wash buffer using the Brandel Harvester, and the retained tritium was counted by a Taurus liquid scintillation counter at 40% efficiency after an overnight extraction in 3 ml Cytoscint (ICN).
(§3) In substrate reversal experiments, statistical significance was determined using the Student's t-test.

5-HT2B receptor [2] = target: T1, 5-HT2B receptor; assay: 5-HT2B activity, antagonist; assay type: cell-based
NET = target: T2, NET (Rattus norvegicus, UniProt Q63380); assay: NE release assay (synaptosomes, [3H]MPP+); assay type: biochemical; conditions: for NE Rel (%): % EC50 of release
T2 construct: the supernatants were retained on ice (synaptosomal preparation); from tissue; host or cells: rat whole brain minus cerebellum and caudate, synaptosomes
T2 sequence (Q63380 1-617): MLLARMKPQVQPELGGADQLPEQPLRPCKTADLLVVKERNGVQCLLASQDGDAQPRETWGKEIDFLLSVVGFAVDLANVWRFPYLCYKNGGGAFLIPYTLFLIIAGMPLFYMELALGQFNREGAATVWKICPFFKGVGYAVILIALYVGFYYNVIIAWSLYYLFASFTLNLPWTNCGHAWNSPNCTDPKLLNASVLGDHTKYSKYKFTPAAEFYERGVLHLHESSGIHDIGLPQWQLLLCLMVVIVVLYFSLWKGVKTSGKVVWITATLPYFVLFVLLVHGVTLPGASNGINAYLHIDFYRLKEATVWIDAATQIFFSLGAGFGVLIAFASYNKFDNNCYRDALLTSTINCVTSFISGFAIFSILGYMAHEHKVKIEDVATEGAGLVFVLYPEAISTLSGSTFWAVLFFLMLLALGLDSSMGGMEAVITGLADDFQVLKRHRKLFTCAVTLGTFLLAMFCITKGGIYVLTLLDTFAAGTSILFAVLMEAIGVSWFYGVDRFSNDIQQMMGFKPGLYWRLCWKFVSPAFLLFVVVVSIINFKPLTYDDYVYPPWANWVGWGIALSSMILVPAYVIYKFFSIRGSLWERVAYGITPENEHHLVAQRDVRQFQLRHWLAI
Protocol: as §1, §2, §3

SERT = SERT (Rattus norvegicus, UniProt P31652); assay: 5-HT release assay (synaptosomes, [3H]5-HT); assay type: biochemical; set-up: the supernatants were retained on ice (synaptosomal preparation); from tissue; host or cells: rat whole brain minus cerebellum and caudate, synaptosomes; conditions: for 5HT Rel (%): Table 4, % EC50 of release
Sequence of SERT (P31652 whole entry): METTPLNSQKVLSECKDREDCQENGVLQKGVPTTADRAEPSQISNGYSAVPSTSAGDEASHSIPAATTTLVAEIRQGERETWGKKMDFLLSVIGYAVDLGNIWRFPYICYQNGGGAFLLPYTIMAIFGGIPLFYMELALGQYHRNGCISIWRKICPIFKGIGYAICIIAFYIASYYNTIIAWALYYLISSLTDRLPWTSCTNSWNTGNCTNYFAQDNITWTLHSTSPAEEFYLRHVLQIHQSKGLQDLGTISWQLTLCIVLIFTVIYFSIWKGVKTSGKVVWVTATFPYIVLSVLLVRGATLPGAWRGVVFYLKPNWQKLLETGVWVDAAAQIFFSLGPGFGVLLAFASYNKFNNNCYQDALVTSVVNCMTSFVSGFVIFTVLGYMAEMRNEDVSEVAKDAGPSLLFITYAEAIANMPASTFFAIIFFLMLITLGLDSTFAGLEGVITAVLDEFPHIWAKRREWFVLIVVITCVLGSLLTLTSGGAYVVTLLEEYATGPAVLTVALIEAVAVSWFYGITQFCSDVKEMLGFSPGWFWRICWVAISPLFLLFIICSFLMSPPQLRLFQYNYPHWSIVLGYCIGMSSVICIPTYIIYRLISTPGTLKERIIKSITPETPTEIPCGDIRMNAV
Protocol: as §1, §2, §3

[3] = Release NE (EC50 nm), Table 3, rat brain synaptosomes

T1 sequence (P41595 whole entry): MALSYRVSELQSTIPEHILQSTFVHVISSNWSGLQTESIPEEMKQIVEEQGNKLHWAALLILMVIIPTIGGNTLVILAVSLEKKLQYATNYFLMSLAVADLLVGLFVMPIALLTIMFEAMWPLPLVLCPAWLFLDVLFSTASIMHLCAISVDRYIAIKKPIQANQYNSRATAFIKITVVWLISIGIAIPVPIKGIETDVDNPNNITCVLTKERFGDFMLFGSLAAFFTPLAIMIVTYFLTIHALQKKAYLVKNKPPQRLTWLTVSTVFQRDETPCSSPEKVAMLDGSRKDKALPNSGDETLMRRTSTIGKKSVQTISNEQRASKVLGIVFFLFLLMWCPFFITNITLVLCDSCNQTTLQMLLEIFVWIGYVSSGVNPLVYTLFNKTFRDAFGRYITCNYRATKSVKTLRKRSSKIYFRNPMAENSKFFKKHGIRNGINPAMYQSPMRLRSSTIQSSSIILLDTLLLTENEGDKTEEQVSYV

SMILES: CC1NCCOC1c1cccc(F)c1 (stereo not drawn) [PAL593, 2-(3-fluoro-phenyl)-3-methyl-morpholine]
- activation at 10 µM (5-HT2B receptor [1]): 0%
- activation at 10 µM (DAT): 100%
- inhibition at 1 µM (5-HT2B receptor [2]): 1%
- activation at 10 µM (NET; Table 3): 93%
- activation at 10 µM (SERT; Table 3): 95%

SMILES: C[C@H]1NCCO[C@@H]1c1ccccc1 [PAL56, (+)-phenmetrazine, reference compound]
- activation at 10 µM (5-HT2B receptor [1]): 0%
- DA releaser activity (in words) (DAT): effective DA/5HT releaser
- EC50 (DAT): 87 nM
- inhibition at 1 µM (5-HT2B receptor [2]): 42%
- EC50 (NET; NE Rel (EC50), Table 4): 38 nM
- EC50 (NET; [3]): 37 nM
- 5HT releaser activity (in words) (SERT): effective DA/5HT releaser
- EC50 (SERT): 3250 nM

SMILES: CC1NCCOC1(O)c1cccc(Cl)c1 (stereo not drawn) [PAL590, 2-(3-chlorophenyl)-3-methylmorpholin-2-ol]
- activation at 10 µM (5-HT2B receptor [1]): 0%
- activation at 10 µM (DAT): 39%
- inhibition at 1 µM (5-HT2B receptor [2]): 16%
- activation at 10 µM (NET; Table 3): 62%
- activation at 10 µM (SERT; Table 3): 41%

SMILES: Cc1cccc(C2(O)OCCNC2C)c1 (stereo not drawn) [PAL589, 3-methyl-2-(3′-tolyl)morpholin-2-ol]
- activation at 10 µM (5-HT2B receptor [1]): 0%
- activation at 10 µM (DAT): 28%
- inhibition at 1 µM (5-HT2B receptor [2]): 12%
- activation at 10 µM (NET; Table 3): 47%
- activation at 10 µM (SERT; Table 3): 56%

SMILES: Cc1ccc(C2OCCNC2C)cc1 (stereo not drawn) [PAL 747, 3-Methyl-2-(4′-Tolyl)morpholine fumarate]
- DA Rel (%) (DAT; Table 4, % EC50 of release): 91%

SMILES: Cc1cccc([C@H]2CN[C@@H](C)CO2)c1 [PAL 886, (2S,5S)-5-Methyl-2-m-tolyl-morpholine]
- DA Rel (%) (DAT; Table 5): 86%

SMILES: CC1NCCOC1c1ccc(Cl)cc1.CC1NCCOC1c1ccc(Cl)cc1.O=C(O)/C=C/C(=O)O (stereo not drawn) [PAL 749, 3-Methyl-[(4′-Chloro)-2-Phenyl]morpholine (0.5 fumarate)]
- DA Rel (%) (DAT; Table 4, % EC50 of release): 88%
- NE Rel (%) (NET; Table 4): 93%
- 5HT Rel (%) (SERT): 76%

SMILES: CC1NCCOC1c1ccc(F)cc1.CC1NCCOC1c1ccc(F)cc1.O=C(O)/C=C/C(=O)O (stereo not drawn) [PAL 748, 3-Methyl-[(4′-Fluoro)-2-Phenyl]morpholine (0.5 fumarate)]
- DA Rel (%) (DAT; Table 4, % EC50 of release): 98%
- NE Rel (%) (NET; Table 4): 93%
- 5HT Rel (%) (SERT): 94%

SMILES: CC1NCCOC1(O)c1cccc(F)c1 (stereo not drawn) [PAL587, 2-(3-fluorophenyl)-3-methylmorpholin-2-ol]
- activation at 10 µM (5-HT2B receptor [1]): 0%
- activation at 10 µM (DAT): 34%
- inhibition at 1 µM (5-HT2B receptor [2]): 0%
- activation at 10 µM (NET; Table 3): 67%
- activation at 10 µM (SERT; Table 3): 6%

SMILES: C[C@H]1NCCOC1c1cccc(F)c1 (stereo in doubt) [PAL593, 2-(3-fluoro-phenyl)-3-methyl-morpholine]
- EC50 (DAT): 43 nM
- EC50 (NET; NE Rel (EC50), Table 4): 30 nM
- EC50 (SERT): 2560 nM

SMILES: C[C@H]1NCCOC1c1ccccc1 (stereo partly drawn) [PAL55, reference compound]
- activation at 10 µM (5-HT2B receptor [1]): 0%
- EC50 (DAT): 131 nM
- EC50 (NET; [3]): 50 nM
- EC50 (SERT): 7770 nM

SMILES: C[C@H]1NCCO[C@H]1c1ccccc1 [PAL60, reference compound]
- activation at 10 µM (5-HT2B receptor [1]): 0%
- EC50 (DAT): 1460 nM
- EC50 (NET; [3]): 349 nM
- Release 5-HT (EC50 nm) (SERT; Table 3, rat brain synaptosomes): Inactive

SMILES: Fc1ccc(C2CNCCO2)cc1 (stereo not drawn) [PAL635, 2-(4-fluorophenyl)morpholine]
- activation at 10 µM (5-HT2B receptor [1]): 0%
- EC50 (DAT): 529 nM
- activation at 10 µM (DAT): 95%
- EC50 (NET; NE Rel (EC50), Table 4): 285 nM
- activation at 10 µM (NET; Table 3): 100%
- EC50 (SERT): 2400 nM
- activation at 10 µM (SERT; Table 3): 88%

SMILES: COc1cccc(C2OCCNC2C)c1.COc1cccc(C2OCCNC2C)c1.O=C(O)/C=C/C(=O)O (stereo not drawn) [PAL 823, 3-Methyl-[(3′-Methoxy)-2-Phenyl]morpholine (0.5 fumarate)]
- DA Rel (%) (DAT; Table 4, % EC50 of release): 96%
- NE Rel (%) (NET; Table 4): 86%
- 5HT Rel (%) (SERT): 78%

SMILES: CC1NCCOC1c1ccc(F)c(Cl)c1.Cl (stereo not drawn) [PAL 821, 3-Methyl-[(3′-Chloro-4′-Fluoro)-2-Phenyl]morpholine hydrochloride]
- DA Rel (%) (DAT; Table 4, % EC50 of release): 94%
- NE Rel (%) (NET; Table 4): 80%
- 5HT Rel (%) (SERT): 71%

SMILES: Cc1cccc(C2OCCNC2C)c1.Cc1cccc(C2OCCNC2C)c1.O=C(O)/C=C/C(=O)O (stereo not drawn) [PAL 773, 3-Methyl-2-(3′-Tolyl)morpholine (0.5 fumarate)]
- DA Rel (%) (DAT; Table 4, % EC50 of release): 98%
- NE Rel (%) (NET; Table 4): 80%
- 5HT Rel (%) (SERT): 82%

SMILES: C[C@H]1CO[C@@H](c2cccc(Cl)c2)CN1 [PAL 738, (2S,5S)-2-(3-Chloro-phenyl)-5-methyl-morpholine]
- EC50 (DAT): 58 nM
- EC50 (NET): 65 nM
- EC50 (SERT): 23 nM

— patent publication US9617229B2, “Phenylmorpholines and analogues thereof” (Research Triangle Institute, priority 2010, dated 2017)
